The values that follow come from PMC3948918 (PLoS ONE, 2014).

Molecules are shown by their SMILES. Numbered stars: 1 amine (or outer) side, 2 acyl side, 3 side chain; on linkers, the order of the positions; unused ones are H or OH. Bridge positions count the residues as written; N and C are the ends. Square brackets hold non-standard residues; d marks the D form. Peptide text beside a SMILES is read from it. Adda = CO[C@@H](Cc1ccccc1)[C@@H](C)/C=C(C)/C=C/[C@H](N[*:1])[C@H](C)C(=O)[*:2]; dAsp(3S-Me) = C[C@H](C(=O)[*:3])[C@@H](N[*:1])C(=O)[*:2]; d(γGlu) = O=C(O)[C@@H](CCC(=O)[*:2])N[*:1]; NMeDha = C=C(NC)C(=O)O

In experiment [1] the test system is HeLa Control cells. The settings on record: read-out: IC50 HeLa Control.
Experiment [2] deals with OATP1B1-expressing HeLa cells. The settings on record: read-out: IC50 HeLa B1.
Experiment [3] has as its system OATP1B3-expressing HeLa cells. The settings on record: for IC50: read-out: IC50 HeLa B3.
Experiment [4] deals with OATP1B1- and OATP1B3-expressing HeLa or RKO cell lines.
The subject of experiment [5] is RKO control cells. The settings on record: read-out: IC50 RKO control.
Experiment [6] concerns OATP1B1-expressing RKO cells. The settings on record: read-out: IC50 RKO B1.
The test system of experiment [7] is OATP1B3-expressing RKO cells. The settings on record: for IC50: read-out: IC50 RKO B3.

What is called IC50 is the point on the concentration scale where inhibition reaches its midpoint. For the molecule `C=C1C(=O)N[C@H](C)C(=O)N[C@@H](CC(C)C)C(=O)N[C@@H](C(=O)O)[C@H](C)C(=O)N[C@@H](Cc2ccc(O)cc2)C(=O)N[C@@H](/C=C/C(C)=C/[C@H](C)[C@H](Cc2ccccc2)OC)[C@H](C)C(=O)N[C@@H](C(=O)O)CCC(=O)N1C` [compound 5, MC-LY] (Y[Adda][d(γGlu)][NMeDha][dA]L[dAsp(3S-Me)]-OH; lactam N-7), the values for the 50% inhibitory concentration (IC50) in experiment [1], in experiment [2] and in experiment [3] were greater than 10 nM, 0.16 nM and 0.21 nM, respectively. In addition, in experiment [3], the “Ratio IC50 B1/B3 HeLa” value is recorded as 0.8. The “IC50 values (potency grouping)” value in experiment [4] is recorded as “sub-nanomolar”. In addition, in experiment [4], the “transporter selectivity (in words)” value is given as “least OATP1B3 selective”.
With `C=C1C(=O)N[C@H](C)C(=O)N[C@@H](CC(C)C)C(=O)N[C@@H](C(=O)O)[C@H](C)C(=O)N[C@@H](Cc2c[nH]c3ccccc23)C(=O)N[C@@H](/C=C/C(C)=C/[C@H](C)[C@H](Cc2ccccc2)OC)[C@H](C)C(=O)N[C@@H](C(=O)O)CCC(=O)N1C` [compound 8, LW, reference compound] (W[Adda][d(γGlu)][NMeDha][dA]L[dAsp(3S-Me)]-OH; lactam N-7), the IC50 was greater than 1000 nM in experiment [1]; 0.22 nM in experiment [2]; 0.16 nM in experiment [3]; greater than 1000 nM in experiment [5]; 0.4 nM in experiment [6]; 0.29 nM in experiment [7]. For the same molecule, the “Ratio IC50 B1/B3 HeLa” value in experiment [3] worked out at 1.4. The “Ratio IC50 B1/B3 RKO” value in experiment [7] was found to be 1.4. Further, the “IC50 values (potency grouping)” value in experiment [4] is listed as “sub-nanomolar”. The “transporter selectivity (in words)” value in experiment [4] is “weakly OATP1B3 selective”.
As for `CC=C1C(=O)N[C@@H](C(=O)O)[C@H](C)C(=O)N[C@@H](CCCNC(=N)N)C(=O)N[C@@H](/C=C/C(C)=C/[C@H](C)[C@H](Cc2ccccc2)OC)[C@H](C)C(=O)N[C@@H](C(=O)O)CCC(=O)N1C` [compound 23, Nodularin], the IC50 in experiment [1] is greater than 100 nM; in experiment [2] it was 8.4 nM; in experiment [3] it was greater than 100 nM; in experiment [5], greater than 100 nM; in experiment [6] it was 10 nM; in experiment [7] it was greater than 100 nM. For the same molecule, the “Ratio IC50 B1/B3 HeLa” value in experiment [3] is less than 0.1. Further, the “Ratio IC50 B1/B3 RKO” value in experiment [7] is on record as less than 0.1.
For `C/C=C1/NC(=O)CC[C@H](C(=O)O)NC(=O)[C@@H](C)[C@H](/C=C/C(C)=C/[C@H](C)[C@H](Cc2ccccc2)OC)NC(=O)[C@H](CCCNC(=N)N)NC(=O)C[C@H](C(=O)O)NC(=O)[C@H](Cc2ccc(O)cc2)NC(=O)[C@@H](C)NC1=O` [compound 15, [D-Asp^3,(E)-Dhb^7]MC-YR], the half-maximal inhibitory concentration (IC50) in experiment [5] is greater than 1000 nM; in experiment [6], 108 nM; in experiment [7], 27.1 nM. For the same molecule, the “Ratio IC50 B1/B3 RKO” value in experiment [7] is recorded as 4.0. In addition, the “transporter selectivity (in words)” value in experiment [4] is recorded as “most OATP1B3 selective”.
In the same order, the values of `C=C1C(=O)N[C@H](C)C(=O)N[C@@H](CC(C)C)C(=O)N[C@@H](C(=O)O)CC(=O)N[C@@H](CCCNC(=N)N)C(=O)N[C@@H](/C=C/C(C)=C/[C@H](C)[C@H](Cc2ccccc2)OC)[C@H](C)C(=O)N[C@@H](C(=O)O)CCC(=O)N1C` [compound 2, [D-Asp^3]MC-LR] are greater than 1000 nM, 7.3 nM, 31.3 nM, 0.2 and “least OATP1B3 selective”.
Take `C=C1C(=O)N[C@H](C)C(=O)N[C@@H](Cc2ccc(O)cc2)C(=O)N[C@@H](C(=O)O)[C@H](C)C(=O)N[C@@H](CCCNC(=N)N)C(=O)N[C@@H](/C=C/C(C)=C/[C@H](C)[C@H](Cc2ccccc2)OC)[C@H](C)C(=O)N[C@@H](C(=O)OC)CCC(=O)N1C` [compound 22, [D-Glu(OMe)^6]MC-YR]: the IC50 was greater than 1000 nM in experiment [5], 595 nM in experiment [6], 227 nM in experiment [7] and greater than 100 nM in experiment [4] (read-out: IC50 values (potency grouping)). For the same molecule, the “Ratio IC50 B1/B3 RKO” value in experiment [7] is recorded as 2.6.
Regarding `C=C1C(=O)N[C@H](C)C(=O)N[C@@H](Cc2ccc(O)cc2)C(=O)N[C@@H](C(=O)O)CC(=O)N[C@@H](CCCNC(=N)N)C(=O)N[C@@H](/C=C/C(C)=C/[C@H](C)[C@H](Cc2ccccc2)OC)[C@H](C)C(=O)N[C@@H](C(=O)O)CCC(=O)N1C` [compound 14, [D-Asp^3]MC-YR], the IC50 in experiment [5] was greater than 1000 nM; in experiment [6], 149 nM; in experiment [7], 48 nM. In addition, the “Ratio IC50 B1/B3 RKO” value in experiment [7] was 3.1.
For the molecule `C=C1C(=O)N[C@H](C)C(=O)N[C@@H](CCCNC(=N)N)C(=O)N[C@@H](C(=O)O)[C@H](C)C(=O)N[C@@H](Cc2ccc(O)cc2)C(=O)N[C@@H](/C=C/C(C)=C/[C@H](C)[C@H](Cc2ccccc2)OC)[C@H](C)C(=O)N[C@@H](C(=O)O)CCC(=O)N1C` [compound 16, MC-RY] (Y[Adda][d(γGlu)][NMeDha][dA]R[dAsp(3S-Me)]-OH; lactam N-7), the results for the IC50 in experiment [1], in experiment [2] and in experiment [3] were greater than 1000 nM, 77 nM and 2.5 nM, respectively. Also, the “Ratio IC50 B1/B3 HeLa” value in experiment [3] stood at 30.8. Also, in experiment [4], the “transporter selectivity (in words)” value was “most OATP1B3 selective”.
With `C=C1C(=O)N[C@H](C)C(=O)N[C@@H](Cc2ccc(O)cc2)C(=O)N[C@@H](C(=O)O)[C@H](C)C(=O)N[C@@H](Cc2ccc(O)cc2)C(=O)N[C@@H](/C=C/C(C)=C/[C@H](C)[C@H](Cc2ccccc2)OC)[C@H](C)C(=O)N[C@@H](C(=O)O)CCC(=O)N1C` [compound 17, MC-YY] (Y[Adda][d(γGlu)][NMeDha][dA]Y[dAsp(3S-Me)]-OH; lactam N-7), the IC50 in experiment [1] was 259 nM; in experiment [2], 1.5 nM; in experiment [3], 0.8 nM. Moreover, the “Ratio IC50 B1/B3 HeLa” value in experiment [3] was 1.9. Further, the “IC50 values (potency grouping)” value in experiment [4] is reported as “sub-nanomolar”.
Regarding `C/C=C1/NC(=O)CC[C@H](C(=O)O)NC(=O)[C@@H](C)[C@H](/C=C/C(C)=C/[C@H](C)[C@H](Cc2ccccc2)OC)NC(=O)[C@H](Cc2ccc(O)cc2)NC(=O)C[C@H](C(=O)O)NC(=O)[C@H](CC(C)C)NC(=O)[C@@H](C)NC1=O` [compound 6, [D-Asp^3,(E)-Dhb^7]MC-LY], the IC50 in experiment [1] is greater than 10 nM. Also, in experiment [2], the IC50 was 0.47 nM. Moreover, in experiment [3], the “Ratio IC50 B1/B3 HeLa” value worked out at 2.6 and the IC50 was found to be 0.18 nM. Also, in experiment [4], the “IC50 values (potency grouping)” value is listed as “sub-nanomolar” and the “transporter selectivity (in words)” value was “weakly OATP1B3 selective”.
Take `C/C=C1/NC(=O)CC[C@H](C(=O)O)NC(=O)[C@@H](C)[C@H](/C=C/C(C)=C/[C@H](C)[C@H](Cc2ccccc2)OC)NC(=O)[C@H](Cc2c[nH]c3ccccc23)NC(=O)C[C@H](C(=O)O)NC(=O)[C@H](CC(C)C)NC(=O)[C@@H](C)NC1=O` [compound 9, [D-Asp^3,(E)-Dhb^7]-MC-LW]: the IC50 was greater than 1000 nM in experiment [5], 11 nM in experiment [6] and 7.7 nM in experiment [7]. Further, the “Ratio IC50 B1/B3 RKO” value in experiment [7] was determined as 1.4. Further, in experiment [4], the “transporter selectivity (in words)” value is “weakly OATP1B3 selective”.
Regarding `C=C1C(=O)N[C@H](C)C(=O)N[C@@H](CCCNC(=N)N)C(=O)N[C@@H](C(=O)O)[C@H](C)C(=O)N[C@@H](Cc2ccccc2)C(=O)N[C@@H](/C=C/C(C)=C/[C@H](C)[C@H](Cc2ccccc2)OC)[C@H](C)C(=O)N[C@@H](C(=O)O)CCC(=O)N1C` [compound 12, MC-RF] (F[Adda][d(γGlu)][NMeDha][dA]R[dAsp(3S-Me)]-OH; lactam N-7), the results for the concentration for half-maximal inhibition (IC50) in experiment [5], in experiment [6] and in experiment [7] were greater than 1000 nM, 58.3 nM and 3.38 nM, respectively. For the same molecule, the “Ratio IC50 B1/B3 RKO” value in experiment [7] worked out at 17.2. In addition, in experiment [4], the “transporter selectivity (in words)” value is reported as “most OATP1B3 selective”.
